Results as given in ChEMBL document CHEMBL3352042, “Synthesis of novel benzimidazole functionalized chiral thioureas and evaluation of their antibacterial and anticancer activities” (Bioorg Med Chem Lett, 2014).
Values after ≈ are worked out from the molar mass of the structure shown. Active and inactive are the calls of the source. The calls are words filed in the database; no cut-off is given here.

Key:
DU-145 = assay: Cytotoxicity against human DU145 cells by MTT assay; assay type: functional, cell-based
Bacillus subtilis = assay: Antibacterial activity against Bacillus subtilis MTCC 121 after 24 hrs by well diffusion method; assay type: functional
Escherichia coli = assay: Antibacterial activity against Escherichia coli MTCC 739 after 24 hrs by well diffusion method; assay type: functional
MCF7 = assay: Cytotoxicity against human MCF7 cells by MTT assay; assay type: functional, cell-based
A549 = assay: Cytotoxicity against human A549 cells by MTT assay; assay type: functional, cell-based
Raoultella planticola = assay: Antibacterial activity against Klebsiella planticola MTCC 530 after 24 hrs by well diffusion method; assay type: functional
Pseudomonas aeruginosa = assay: Antibacterial activity against Pseudomonas aeruginosa MTCC 2453 after 24 hrs by well diffusion method; assay type: functional
HeLa = assay: Cytotoxicity against human HeLa cells by MTT assay; assay type: functional, cell-based
Staphylococcus aureus [1] = assay: Antibacterial activity against Staphylococcus aureus MLS16 MTCC 2940 after 24 hrs by well diffusion method; assay type: functional
Staphylococcus aureus [2] = assay: Antibacterial activity against Staphylococcus aureus MTCC 96 after 24 hrs by well diffusion method; assay type: functional
Micrococcus luteus = assay: Antibacterial activity against Micrococcus luteus MTC 2470 after 24 hrs by well diffusion method; assay type: functional
[3] = Homo sapiens, DU-145, read-out: IC50
[4] = Homo sapiens, A549, read-out: IC50
[5] = Homo sapiens, MCF7, read-out: IC50
[6] = Homo sapiens, HeLa, read-out: IC50

Row | MIC (Bacillus subtilis) | MIC (Escherichia coli) | MIC (Pseudomonas aeruginosa) | MIC (Staphylococcus aureus [1]) | MIC (Staphylococcus aureus [2]) | MIC (Micrococcus luteus) | MIC (Bacillus subtilis; MTCC 121, 24 h) [µg/mL] | MIC (Escherichia coli; MTCC 739, 24 h) [µg/mL] | MIC (Pseudomonas aeruginosa; MTCC 2453, 24 h) [µg/mL] | MIC (Staphylococcus aureus [1]; MLS16 MTCC 2940, 24 h) [µg/mL] | MIC (Staphylococcus aureus [2]; MTCC 96, 24 h) [µg/mL] | MIC (Micrococcus luteus; MTC 2470, 24 h) [µg/mL] | Compound | IC50 (DU-145; [3]) [µM] | IC50 (A549; [4]) [µM] | MIC (Raoultella planticola) | IC50 (MCF7; [5]) [µM] | MIC (Raoultella planticola; MTCC 530, 24 h) [µg/mL] | IC50 (HeLa; [6]) [µM] | further results
1 |  |  |  |  |  |  |  |  |  |  |  |  | COc1cccc2c1C(=O)c1c(O)c3c(c(O)c1C2=O)C[C@@](O)(C(=O)CO)C[C@@H]3O[C@H]1C[C@H](N)[C@H](O)[C@H](C)O1 [DOXORUBICIN] | 0.8 |  |  |  |  |  | 
2 | inactive | inactive | inactive | inactive | inactive | inactive |  |  |  |  |  |  | CC(C)[C@@H](NC(=S)Nc1ccccc1)c1nc2ccccc2[nH]1 | 34.8 | 31.5 | inactive |  |  |  | IC50 (MCF7; mcf7): Not Active; IC50 (HeLa; hela): Not Active
3 |  |  |  |  |  |  | 12.5 (≈ 36.9 µM) | > 200 | > 200 | > 200 | 12.5 (≈ 36.9 µM) | > 200 | CC(C)[C@H](NC(=S)NCc1ccccc1)c1nc2ccccc2[nH]1 | 48.5 | 56.1 |  | 57.8 | > 200 | 49.9 | 
4 |  |  |  |  |  |  | 12.5 (≈ 42.2 µM) | > 200 | > 200 | > 200 | 12.5 (≈ 42.2 µM) | > 200 | C[C@H](NC(=S)Nc1ccccc1)c1nc2ccccc2[nH]1 |  | 188 |  | 196 | > 200 |  | IC50 (HeLa; hela): Not Active; IC50 (DU-145; du-145): Not Active
5 | inactive | inactive | inactive | inactive | inactive | inactive |  |  |  |  |  |  | C[C@@H](NC(=S)NCc1ccccc1)c1nc2ccccc2[nH]1 | 28.7 | 18.7 | inactive | 14.3 |  |  | IC50 (HeLa; hela): Not Active
6 |  |  |  |  |  |  | 12.5 (≈ 20.3 µM) | 12.5 (≈ 20.3 µM) | 12.5 (≈ 20.3 µM) | 12.5 (≈ 20.3 µM) | 12.5 (≈ 20.3 µM) | 12.5 (≈ 20.3 µM) | NC[C@@H]1O[C@H](O[C@H]2[C@@H](O)[C@H](O[C@@H]3[C@@H](O)[C@H](N)C[C@H](N)[C@H]3O[C@H]3O[C@H](CN)[C@@H](O)[C@H](O)[C@H]3N)O[C@@H]2CO)[C@H](N)[C@@H](O)[C@@H]1O [FRAMYCETIN] |  |  |  |  | 12.5 (≈ 20.3 µM) |  | 
7 | inactive | inactive | inactive | inactive | inactive | inactive |  |  |  |  |  |  | S=C(Nc1ccccc1)N[C@H](Cc1ccccc1)c1nc2ccccc2[nH]1 | 18.4 | 16.2 | inactive | 9.4 |  | 10.4 | 
8 |  |  |  |  |  |  | > 200 | > 200 | > 200 | > 200 | 25 (≈ 73.9 µM) | > 200 | CC(C)C[C@H](NC(=S)Nc1ccccc1)c1nc2ccccc2[nH]1 | 28.9 | 28.6 |  | 25.8 | > 200 | 29.1 | 
9 |  |  |  |  |  |  | 25 (≈ 80.5 µM) | > 200 | > 200 | > 200 | 12.5 (≈ 40.3 µM) | > 200 | C[C@H](NC(=S)NCc1ccccc1)c1nc2ccccc2[nH]1 | 226 |  |  | 217 | > 200 |  | IC50 (A549; a549): Not Active
10 | inactive | inactive | inactive | inactive | inactive | inactive |  |  |  |  |  |  | C[C@@H](NC(=S)Nc1cc(C(F)(F)F)cc(C(F)(F)F)c1)c1nc2ccccc2[nH]1 | 17.6 | 15.2 | inactive | 10.3 |  | 16.1 | 
11 |  |  |  |  |  |  | 25 (≈ 57.8 µM) | > 200 | > 200 | 12.5 (≈ 28.9 µM) | 12.5 (≈ 28.9 µM) | 25 (≈ 57.8 µM) | C[C@H](NC(=S)Nc1cc(C(F)(F)F)cc(C(F)(F)F)c1)c1nc2ccccc2[nH]1 | 154 | 220 |  | 187 | > 200 | 133 | 
12 | inactive | inactive | inactive | inactive | inactive | inactive |  |  |  |  |  |  | CC(C)C[C@@H](NC(=S)NCc1ccccc1)c1nc2ccccc2[nH]1 | 21.2 | 22.4 | inactive | 18.2 |  | 21.2 | 
13 | inactive | inactive | inactive | inactive | inactive | inactive |  |  |  |  |  |  | CC(C)[C@@H](NC(=S)NCc1ccccc1)c1nc2ccccc2[nH]1 | 17.3 | 11.3 | inactive | 11.1 |  | 12.3 | 
14 |  |  |  |  |  |  | > 200 | 12.5 (≈ 33.6 µM) | > 200 | > 200 | 25 (≈ 67.1 µM) | > 200 | S=C(Nc1ccccc1)N[C@@H](Cc1ccccc1)c1nc2ccccc2[nH]1 |  |  |  |  | > 200 |  | IC50 (MCF7; mcf7): Not Active; IC50 (A549; a549): Not Active; IC50 (HeLa; hela): Not Active; IC50 (DU-145; du-145): Not Active
15 |  |  |  |  |  |  | > 200 | > 200 | > 200 | > 200 | > 200 | > 200 | CC(C)C[C@H](NC(=S)NCc1ccccc1)c1nc2ccccc2[nH]1 | 21.1 | 75.7 |  |  | > 200 | 31.2 | 
16 | inactive | inactive | inactive | inactive | inactive | inactive |  |  |  |  |  |  | FC(F)(F)c1cc(NC(=S)N[C@H](Cc2ccccc2)c2nc3ccccc3[nH]2)cc(C(F)(F)F)c1 | 17.4 | 15.8 | inactive | 12.1 |  | 13.2 | 
17 |  |  |  |  |  |  | 12.5 (≈ 26.3 µM) | 12.5 (≈ 26.3 µM) | 25 (≈ 52.7 µM) | 12.5 (≈ 26.3 µM) | 25 (≈ 52.7 µM) | 6.25 (≈ 13.2 µM) | CC(C)C[C@H](NC(=S)Nc1cc(C(F)(F)F)cc(C(F)(F)F)c1)c1nc2ccccc2[nH]1 | 17.2 | 17.4 |  | 16.3 | 12.5 (≈ 26.3 µM) | 18.1 | 
18 | inactive | inactive | inactive | inactive | inactive | inactive |  |  |  |  |  |  | CC(C)C[C@@H](NC(=S)Nc1cc(C(F)(F)F)cc(C(F)(F)F)c1)c1nc2ccccc2[nH]1 | 16.5 | 10.2 | inactive | 91 |  | 10.4 | 
19 | inactive | inactive | inactive | inactive | inactive | inactive |  |  |  |  |  |  | C[C@@H](NC(=S)Nc1ccccc1)c1nc2ccccc2[nH]1 | 22.1 | 14.8 | inactive | 16.4 |  | 12.4 | 
20 |  |  |  |  |  |  | > 200 | > 200 | > 200 | > 200 | 25 (≈ 64.7 µM) | > 200 | S=C(NCc1ccccc1)N[C@@H](Cc1ccccc1)c1nc2ccccc2[nH]1 | 39.7 | 32.8 |  | 40.2 | > 200 | 30.1 | 
